# Measured values reported in PubChem BioAssay AID1963974 (Molecular Pharmacology Branch, DTP, NCI, 2024).
# System: 648629-189-R-J1-PDC spheroids with HUVEC/MSC, viability
# Experiment: Anticancer human tumor 648629-189-R-J1-PDC patient-derived bladder carcinoma cell line growth inhibition [PI3K]
# Conditions: for IC50: curve of first compound; for viability, T/C: stronger effect = lower value
# Method in brief: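 Tumor cells grown as multi-cell spheroids with HUVEC endothelial cells and MSC fibroblast-like stroma were treated with targeted agents combined with inavolisib, alpelisib, duvelisib or copanlisib. Doses fell in half-log steps from near clinical Cmax, else from 10 microM. Viability was measured.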
# [1] = second compound 0.0316 µM, first compound 0.0316 µM
# [2] = second compound 0.0316 µM, first compound 0.1 µM
# [3] = second compound 0.0316 µM, first compound 0.316 µM
# [4] = second compound 0.0316 µM, first compound 1 µM
# [5] = second compound 0.0316 µM, first compound 3.16 µM
# [6] = second compound 0.0316 µM, first compound 10 µM
# [7] = second compound 0.1 µM, first compound 0.0316 µM
# [8] = second compound 0.1 µM, first compound 0.1 µM
# [9] = second compound 0.1 µM, first compound 0.316 µM
# [10] = second compound 0.1 µM, first compound 1 µM
# [11] = second compound 0.1 µM, first compound 3.16 µM
# [12] = second compound 0.1 µM, first compound 10 µM
# [13] = second compound 0.316 µM, first compound 0.0316 µM
# [14] = second compound 0.316 µM, first compound 0.1 µM
# [15] = second compound 0.316 µM, first compound 0.316 µM
# [16] = second compound 0.316 µM, first compound 1 µM
# [17] = second compound 0.316 µM, first compound 3.16 µM
# [18] = second compound 0.316 µM, first compound 10 µM
# [19] = second compound 1 µM, first compound 0.0316 µM
# [20] = second compound 1 µM, first compound 0.1 µM
# [21] = second compound 1 µM, first compound 0.316 µM
# [22] = second compound 1 µM, first compound 1 µM
# [23] = second compound 1 µM, first compound 3.16 µM
# [24] = second compound 1 µM, first compound 10 µM
# 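Also: spheroids exposed to agents for seven days before reading.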
# 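For viability, T/C in this document: percent of vehicle control luminescence where 100% = DMSO treated spheroids.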
smiles,measurement,setting,value
CCCS(=O)(=O)Nc1ccc(F)c(C(=O)c2c[nH]c3ncc(-c4ccc(Cl)cc4)cc23)c1F + COc1c(OCCCN2CCOCC2)ccc2c3n(c(=NC(=O)c4cnc(N)nc4)nc12)CCN3,IC50,second compound 0.00316 µM,5.39 µM
same,IC50,second compound 0.01 µM,4.98 µM
same,IC50,second compound 0.0316 µM,4.21 µM
same,IC50,second compound 0.1 µM,1.76 µM
same,IC50,second compound 0.316 µM,< 0.0316 µM
same,IC50,second compound 1 µM,< 0.0316 µM
same,"viability, T/C","second compound 0.00316 µM, first compound 0.0316 µM",117%
same,"viability, T/C","second compound 0.00316 µM, first compound 0.1 µM",96.9%
same,"viability, T/C","second compound 0.00316 µM, first compound 0.316 µM",92.4%
same,"viability, T/C","second compound 0.00316 µM, first compound 1 µM",100%
same,"viability, T/C","second compound 0.00316 µM, first compound 3.16 µM",92.7%
same,"viability, T/C","second compound 0.00316 µM, first compound 10 µM",0.51%
same,"viability, T/C","second compound 0.01 µM, first compound 0.0316 µM",89.8%
same,"viability, T/C","second compound 0.01 µM, first compound 0.1 µM",87.2%
same,"viability, T/C","second compound 0.01 µM, first compound 0.316 µM",100%
same,"viability, T/C","second compound 0.01 µM, first compound 1 µM",96.4%
same,"viability, T/C","second compound 0.01 µM, first compound 3.16 µM",82.5%
same,"viability, T/C","second compound 0.01 µM, first compound 10 µM",0.3%
same,"viability, T/C",[1],85.8%
same,"viability, T/C",[2],85.3%
same,"viability, T/C",[3],87.8%
same,"viability, T/C",[4],82.5%
same,"viability, T/C",[5],66.4%
same,"viability, T/C",[6],0.81%
same,"viability, T/C",[7],55.4%
same,"viability, T/C",[8],62.3%
same,"viability, T/C",[9],54%
same,"viability, T/C",[10],60.4%
same,"viability, T/C",[11],42.1%
same,"viability, T/C",[12],1.55%
same,"viability, T/C",[13],22.4%
same,"viability, T/C",[14],19.5%
same,"viability, T/C",[15],18.3%
same,"viability, T/C",[16],21.9%
same,"viability, T/C",[17],16%
same,"viability, T/C",[18],2.22%
same,"viability, T/C",[19],4.16%
same,"viability, T/C",[20],3.42%
same,"viability, T/C",[21],3.84%
same,"viability, T/C",[22],3.92%
same,"viability, T/C",[23],3.43%
same,"viability, T/C",[24],0.43%
CC1(C)CCC(CN2CCN(c3ccc(C(=O)NS(=O)(=O)c4ccc(NCC5CCOCC5)c([N+](=O)[O-])c4)c(Oc4cnc5[nH]ccc5c4)c3)CC2)=C(c2ccc(Cl)cc2)C1 + Cc1nc(NC(=O)N2CCCC2C(N)=O)sc1-c1ccnc(C(C)(C)C(F)(F)F)c1,IC50,second compound 0.0316 µM,4.85 µM
same,IC50,second compound 0.1 µM,4.71 µM
same,IC50,second compound 0.316 µM,4.72 µM
same,IC50,second compound 1 µM,4.73 µM
same,IC50,second compound 3.16 µM,3.71 µM
same,IC50,second compound 10 µM,< 0.0316 µM
same,"viability, T/C",[1],122%
same,"viability, T/C",[2],100%
same,"viability, T/C",[3],102%
same,"viability, T/C",[4],91.6%
same,"viability, T/C",[5],78.4%
same,"viability, T/C",[6],9.8%
same,"viability, T/C",[7],106%
same,"viability, T/C",[8],102%
same,"viability, T/C",[9],106%
same,"viability, T/C",[10],94.9%
same,"viability, T/C",[11],71.6%
same,"viability, T/C",[12],9.33%
same,"viability, T/C",[13],98.3%
same,"viability, T/C",[14],85.1%
same,"viability, T/C",[15],92.2%
same,"viability, T/C",[16],84.4%
same,"viability, T/C",[17],72.5%
same,"viability, T/C",[18],9.78%
same,"viability, T/C",[19],83.8%
same,"viability, T/C",[20],78.1%
same,"viability, T/C",[21],74.3%
same,"viability, T/C",[22],78.5%
same,"viability, T/C",[23],73.2%
same,"viability, T/C",[24],6.85%
same,"viability, T/C","second compound 3.16 µM, first compound 0.0316 µM",61.2%
same,"viability, T/C","second compound 3.16 µM, first compound 0.1 µM",57%
same,"viability, T/C","second compound 3.16 µM, first compound 0.316 µM",58.3%
same,"viability, T/C","second compound 3.16 µM, first compound 1 µM",57.9%
same,"viability, T/C","second compound 3.16 µM, first compound 3.16 µM",56%
same,"viability, T/C","second compound 3.16 µM, first compound 10 µM",12.8%
same,"viability, T/C","second compound 10 µM, first compound 0.0316 µM",43.5%
same,"viability, T/C","second compound 10 µM, first compound 0.1 µM",37.1%
same,"viability, T/C","second compound 10 µM, first compound 0.316 µM",40.1%
same,"viability, T/C","second compound 10 µM, first compound 1 µM",38.3%
same,"viability, T/C","second compound 10 µM, first compound 3.16 µM",43.1%
same,"viability, T/C","second compound 10 µM, first compound 10 µM",7.34%
